# The source made the active and inactive calls. The rule behind the calls is not given here.
# Experiments:
# [1] = Antagonist activity at guinea pig trachea beta-adrenoceptor assessed as inhibition of isoprenaline-induced effect; assay type: tissue-based, Cavia porcellus
# [2] = Antagonist activity at guinea pig atrium beta-adrenoceptor assessed as inhibition of isoprenaline-induced effect; assay type: tissue-based, Cavia porcellus, Cardiac atrium
# Cavia porcellus [3] = species: Cavia porcellus; assay: Competitive antagonist activity at guinea pig trachea beta-adrenoceptor assessed as inhibition of isoprenaline-induced effect up to 10^-4 M; assay type: tissue-based
# Cavia porcellus [4] = species: Cavia porcellus; assay: Competitive antagonist activity at guinea pig atrium beta-adrenoceptor assessed as inhibition of isoprenaline-induced effect up to 3 X 10^-5 M; assay type: tissue-based; conditions: Cardiac atrium
SMILES,pA2 [1],pA2 [2],Activity (Cavia porcellus [3]),Activity (Cavia porcellus [4])
Cc1cccc(OCC(O)CNC(C)C)c1.Cl (configuration not stated),7.97,8.76,,
Cc1cccc(OCC(Cl)CNC(C)C)c1 (configuration not stated),,,inactive,inactive
Cc1cccc(OCC(CO)NC(C)C)c1.Cl (configuration not stated),5.21,5.08,,
Cc1cccc(OCC(CCl)NC(C)C)c1.Cl (configuration not stated),,4.86,inactive,
COCC(COc1cccc(C)c1)NC(C)C.Cl (configuration not stated),,4.66,inactive,
COC(CNC(C)C)COc1cccc(C)c1.Cl (configuration not stated),,5.41,inactive,

# From ChEMBL document CHEMBL3227944, “Beta-adrenoceptor studies. 5. 1H NMR and IR spectroscopic analysis of the conformation of the hydrohalide salts of beta-adrenoceptor-blocking aryloxypropanolamines. Evidence for a seven-membered ring structure with participation of two hydrogen bonds” (J Med Chem, 1979)
